From article PMC3139784 (Bioorganic & medicinal chemistry, 2011)

Experiments:
CE = experiment: Ability of compounds to act as CE substrates; type: biochemical; details: 200 μM compound, 50 mM Hepes pH 7.4, data not shown
[1] = Spontaneous hydrolysis in buffered aqueous solution; type: physicochemical; details: within 5 mins of addition to buffered aqueous (pH 7.4) solution
[2] = test system: mammalian CEs (hCE1, hiCE, rCE); experiment: CE inhibition across mammalian CEs; type: biochemical; details: hCE1, hiCE or rCE, o-NPA substrate
hAChE = hAChE (Homo sapiens, UniProt P22303); experiment: Inhibition of acetylcholinesterase; type: biochemical
Sequence of hAChE (P22303 32-614): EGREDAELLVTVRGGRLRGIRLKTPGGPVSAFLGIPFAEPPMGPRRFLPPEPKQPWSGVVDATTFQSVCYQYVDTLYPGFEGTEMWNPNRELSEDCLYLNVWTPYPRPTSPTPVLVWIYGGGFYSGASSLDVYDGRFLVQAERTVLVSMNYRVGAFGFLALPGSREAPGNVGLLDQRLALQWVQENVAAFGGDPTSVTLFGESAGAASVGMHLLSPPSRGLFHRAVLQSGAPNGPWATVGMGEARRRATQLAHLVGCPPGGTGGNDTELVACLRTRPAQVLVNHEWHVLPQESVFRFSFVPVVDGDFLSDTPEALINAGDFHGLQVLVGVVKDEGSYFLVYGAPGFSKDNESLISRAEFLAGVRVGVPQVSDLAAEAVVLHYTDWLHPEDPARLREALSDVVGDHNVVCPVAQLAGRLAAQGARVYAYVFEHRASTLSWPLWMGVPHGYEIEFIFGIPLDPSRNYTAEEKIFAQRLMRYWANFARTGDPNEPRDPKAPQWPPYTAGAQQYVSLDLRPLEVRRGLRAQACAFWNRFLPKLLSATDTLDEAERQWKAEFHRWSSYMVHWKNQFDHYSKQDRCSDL

hBChE = hBChE (Homo sapiens, UniProt P06276); experiment: Inhibition of butyrylcholinesterase; type: biochemical
Sequence of hBChE (P06276 29-602): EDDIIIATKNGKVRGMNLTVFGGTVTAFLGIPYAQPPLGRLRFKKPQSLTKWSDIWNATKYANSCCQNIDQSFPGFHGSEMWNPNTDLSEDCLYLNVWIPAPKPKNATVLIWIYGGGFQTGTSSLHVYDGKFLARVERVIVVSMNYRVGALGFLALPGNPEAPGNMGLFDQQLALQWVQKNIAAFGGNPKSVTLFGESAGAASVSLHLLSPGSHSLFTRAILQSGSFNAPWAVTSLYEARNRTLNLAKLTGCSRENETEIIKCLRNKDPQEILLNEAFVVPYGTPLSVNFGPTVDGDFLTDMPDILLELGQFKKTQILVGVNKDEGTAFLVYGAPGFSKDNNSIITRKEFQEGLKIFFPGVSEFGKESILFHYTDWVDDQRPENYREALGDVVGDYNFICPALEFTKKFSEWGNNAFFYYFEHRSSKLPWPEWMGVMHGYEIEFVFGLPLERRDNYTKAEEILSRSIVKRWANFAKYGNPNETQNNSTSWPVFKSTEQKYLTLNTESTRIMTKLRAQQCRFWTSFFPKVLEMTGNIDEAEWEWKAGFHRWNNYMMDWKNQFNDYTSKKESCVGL

[3] = test system: U373MG cells expressing hiCE; experiment: Growth inhibition assay with inhibitors and CPT-11; type: cell-based; details: U373MGhiCE cells

SMILES	Hydrolysis on addition of CE (in words) (CE)	Compound hydrolyzed spontaneously [1]	CE inhibition (in words) [2]	other results
O=C(Sc1ccccc1)C(=O)Sc1ccccc1 [Compound 3, S^1, S^2-Diphenyl ethane bis(thioate)]	not enhanced	greater than 40%	ineffective at enzyme inhibition	
O=C(Nc1ccccc1)C(=O)Nc1ccccc1 [Compound 2, Oxanilide]			not an inhibitor	Activity towards hAChE (in words) (hAChE): lacked activity; Activity towards hBChE (in words) (hBChE): lacked activity
O=C(C(=O)c1ccccc1)c1ccccc1 [Compound 1, Benzil, reference compound]				Reduction of toxicity of CPT-11 ([3]; versus CPT-11 alone): ~ 6 fold
CCCCCCC(=O)C(=O)CCCCCC [Compound 13, Tetradecane-7,8-dione]				Modulation of CPT-11 cytotoxicity (in words) ([3]; 10 μM inhibitor): ineffective
O=C(Oc1ccccc1)C(=O)Oc1ccccc1 [Compound 4, Diphenyl ethanedioate]	not enhanced	greater than 40%	ineffective at enzyme inhibition	
